According to patent US7759331B2, “Pyridine-containing macroheterococylic compounds as kinase inhibitors” (Janssen Pharmaceutica NV, priority 2006, dated 2010):

Tests used:
Experiment in all cases: Protein kinase selectivity panel
Settings in all cases: 1.0 μM compound, 10 μM ATP
Abl(T315l)(h) = Abl(T315l)(h) (Homo sapiens, UniProt P00519, T315I); format: biochemical
Description: (§1) Protein kinase selectivity assays were performed as described in the scientific literature (Davies, S. P., et al., Biochem. J. 2000, 351, 95-105). Briefly, protein kinases were assayed for their ability to phosphorylate the appropriate peptide/protein substrates in the presence of 1.0 μM compound. Assays were done using 10 μM ATP and were linear with respect to time. The protein kinase selectivity assays were performed by Upstate Cell Signaling Solutions using Upstate's KinaseProfiler™ Selectivity Screening Service.

PKCθ(h) = PKCθ(h) (Homo sapiens, UniProt Q04759); format: biochemical
Description: as §1

PKCα(h) = PKCα(h) (Homo sapiens, UniProt P17252); format: biochemical
Description: as §1

IGF-1R(h) = IGF-1R(h) (Homo sapiens, UniProt P08069); format: biochemical
Description: as §1

GSK3β(h) = GSK3β(h) (Homo sapiens, UniProt P49841); format: biochemical
Description: as §1

PKBγ(h) = PKBγ(h) (Homo sapiens, UniProt Q9Y243); format: biochemical
Description: as §1

MKK4(m) = molecular target: T1, MKK4(m) (Mus musculus, UniProt P47809); format: biochemical
T1 sequence (P47809 1-397): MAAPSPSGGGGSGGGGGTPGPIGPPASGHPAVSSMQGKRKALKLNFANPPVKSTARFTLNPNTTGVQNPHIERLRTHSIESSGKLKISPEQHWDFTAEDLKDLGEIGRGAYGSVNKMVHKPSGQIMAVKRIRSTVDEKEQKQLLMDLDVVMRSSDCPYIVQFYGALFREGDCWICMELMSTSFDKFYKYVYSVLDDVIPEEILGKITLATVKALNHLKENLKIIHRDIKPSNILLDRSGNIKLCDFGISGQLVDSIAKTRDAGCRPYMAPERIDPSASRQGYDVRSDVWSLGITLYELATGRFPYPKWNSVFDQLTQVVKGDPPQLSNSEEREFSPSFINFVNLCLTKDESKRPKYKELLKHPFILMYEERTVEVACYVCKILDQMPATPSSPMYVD
Description: as §1

PDGFRβ(h) = PDGFRβ(h) (Homo sapiens, UniProt P09619); format: biochemical
Description: as §1

CDK1/cyclinB(h) = CDK1/cyclinB(h) (Homo sapiens, UniProt P06493); format: biochemical
Description: as §1

MST2(h) = molecular target: T2, MST2(h) (Homo sapiens, UniProt Q13188); format: biochemical
T2 sequence (Q13188 1-491): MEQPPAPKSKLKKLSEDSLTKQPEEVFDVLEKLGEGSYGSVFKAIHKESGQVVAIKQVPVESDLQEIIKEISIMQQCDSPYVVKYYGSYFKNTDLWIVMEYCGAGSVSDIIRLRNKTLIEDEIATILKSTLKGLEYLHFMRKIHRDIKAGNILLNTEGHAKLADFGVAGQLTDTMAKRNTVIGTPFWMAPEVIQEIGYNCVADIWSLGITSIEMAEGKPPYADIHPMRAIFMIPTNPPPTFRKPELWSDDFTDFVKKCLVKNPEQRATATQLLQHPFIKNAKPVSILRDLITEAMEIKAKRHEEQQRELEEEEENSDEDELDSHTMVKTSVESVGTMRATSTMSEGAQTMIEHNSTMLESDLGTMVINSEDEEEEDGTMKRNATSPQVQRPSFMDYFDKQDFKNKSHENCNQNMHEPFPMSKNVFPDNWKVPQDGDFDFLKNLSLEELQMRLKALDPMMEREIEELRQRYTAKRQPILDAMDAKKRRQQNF
Description: as §1

Rsk1(h) = Rsk1(h) (Homo sapiens, UniProt Q15418); format: biochemical
Description: as §1

PKCγ(h) = PKCγ(h) (Homo sapiens, UniProt P05129); format: biochemical
Description: as §1

JNK1α1(h) = JNK1α1(h) (Homo sapiens, UniProt P45983); format: biochemical
Description: as §1

SAPK3(h) = molecular target: T3, SAPK3(h) (Homo sapiens, UniProt P53778); format: biochemical
T3 sequence (P53778 1-367): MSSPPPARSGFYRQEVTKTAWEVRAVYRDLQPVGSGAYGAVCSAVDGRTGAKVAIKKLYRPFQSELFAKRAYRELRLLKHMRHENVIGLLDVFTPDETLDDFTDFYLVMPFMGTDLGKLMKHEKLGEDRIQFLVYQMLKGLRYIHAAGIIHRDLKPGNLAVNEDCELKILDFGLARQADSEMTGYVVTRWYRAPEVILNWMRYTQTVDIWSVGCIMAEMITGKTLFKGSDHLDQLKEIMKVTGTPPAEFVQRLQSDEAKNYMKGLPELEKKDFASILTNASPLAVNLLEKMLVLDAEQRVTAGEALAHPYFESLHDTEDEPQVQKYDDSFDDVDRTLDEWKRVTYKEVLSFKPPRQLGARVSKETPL
Description: as §1

ROCK-II(h) = ROCK-II(h) (Homo sapiens, UniProt O75116); format: biochemical
Description: as §1

Fes(h) = Fes(h) (Homo sapiens, UniProt P07332); format: biochemical
Description: as §1

CK1(y) = format: biochemical, yeast
Description: as §1

AMPK(r) = format: biochemical, rat
Description: as §1

CaMKII(r) = format: biochemical, rat
Description: as §1

p70S6K(h) = format: biochemical, human
Description: as §1

Sequence of Fes(h) (P07332 whole entry): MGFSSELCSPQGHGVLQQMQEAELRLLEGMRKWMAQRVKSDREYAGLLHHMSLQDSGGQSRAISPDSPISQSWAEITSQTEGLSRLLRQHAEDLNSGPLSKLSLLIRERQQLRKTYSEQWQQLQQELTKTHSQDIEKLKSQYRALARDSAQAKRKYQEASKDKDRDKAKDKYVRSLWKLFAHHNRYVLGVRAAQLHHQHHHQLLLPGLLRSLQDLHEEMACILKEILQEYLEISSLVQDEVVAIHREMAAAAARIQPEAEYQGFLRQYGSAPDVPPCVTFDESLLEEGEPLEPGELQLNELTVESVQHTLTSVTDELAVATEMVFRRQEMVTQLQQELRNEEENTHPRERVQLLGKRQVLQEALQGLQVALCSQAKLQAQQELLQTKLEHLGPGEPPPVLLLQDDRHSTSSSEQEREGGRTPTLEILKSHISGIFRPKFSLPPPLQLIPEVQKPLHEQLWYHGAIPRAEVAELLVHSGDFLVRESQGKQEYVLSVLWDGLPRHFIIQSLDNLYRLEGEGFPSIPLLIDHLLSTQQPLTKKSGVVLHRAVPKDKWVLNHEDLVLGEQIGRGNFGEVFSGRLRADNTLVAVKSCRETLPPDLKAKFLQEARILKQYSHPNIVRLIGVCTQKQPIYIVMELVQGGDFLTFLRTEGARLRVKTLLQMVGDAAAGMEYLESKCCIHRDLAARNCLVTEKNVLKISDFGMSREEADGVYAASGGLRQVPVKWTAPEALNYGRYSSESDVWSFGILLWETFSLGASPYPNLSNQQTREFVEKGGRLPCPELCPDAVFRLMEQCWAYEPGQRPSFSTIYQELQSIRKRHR
Sequence of PKCθ(h) (Q04759 whole entry): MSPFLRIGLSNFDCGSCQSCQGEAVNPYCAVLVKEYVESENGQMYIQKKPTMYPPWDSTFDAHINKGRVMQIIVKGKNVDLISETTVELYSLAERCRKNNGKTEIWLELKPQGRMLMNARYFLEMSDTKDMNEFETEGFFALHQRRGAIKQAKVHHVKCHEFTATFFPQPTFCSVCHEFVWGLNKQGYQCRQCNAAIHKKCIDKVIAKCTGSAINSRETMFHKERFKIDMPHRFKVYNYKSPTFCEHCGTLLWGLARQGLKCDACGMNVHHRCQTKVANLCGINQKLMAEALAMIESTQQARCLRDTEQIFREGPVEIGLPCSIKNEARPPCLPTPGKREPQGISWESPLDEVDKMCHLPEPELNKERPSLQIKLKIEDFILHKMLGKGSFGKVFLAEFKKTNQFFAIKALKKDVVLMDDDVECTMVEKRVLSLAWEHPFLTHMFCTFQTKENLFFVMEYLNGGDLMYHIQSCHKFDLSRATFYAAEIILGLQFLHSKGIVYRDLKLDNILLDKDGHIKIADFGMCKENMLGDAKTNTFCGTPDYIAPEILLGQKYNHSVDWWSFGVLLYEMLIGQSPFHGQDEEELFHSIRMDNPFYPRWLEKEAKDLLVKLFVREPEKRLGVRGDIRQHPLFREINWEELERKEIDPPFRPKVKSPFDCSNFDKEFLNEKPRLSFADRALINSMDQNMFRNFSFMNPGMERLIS
Sequence of CDK1/cyclinB(h) (P06493 whole entry): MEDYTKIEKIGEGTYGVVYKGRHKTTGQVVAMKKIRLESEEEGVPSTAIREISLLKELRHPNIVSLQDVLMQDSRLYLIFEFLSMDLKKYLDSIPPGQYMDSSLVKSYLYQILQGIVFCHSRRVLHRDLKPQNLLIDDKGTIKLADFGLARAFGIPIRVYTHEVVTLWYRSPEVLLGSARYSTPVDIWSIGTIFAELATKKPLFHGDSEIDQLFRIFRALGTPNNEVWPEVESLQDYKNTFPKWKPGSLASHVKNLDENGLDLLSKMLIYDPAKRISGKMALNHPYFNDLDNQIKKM
Sequence of CDK1/cyclinB(h) (P14635 whole entry partner): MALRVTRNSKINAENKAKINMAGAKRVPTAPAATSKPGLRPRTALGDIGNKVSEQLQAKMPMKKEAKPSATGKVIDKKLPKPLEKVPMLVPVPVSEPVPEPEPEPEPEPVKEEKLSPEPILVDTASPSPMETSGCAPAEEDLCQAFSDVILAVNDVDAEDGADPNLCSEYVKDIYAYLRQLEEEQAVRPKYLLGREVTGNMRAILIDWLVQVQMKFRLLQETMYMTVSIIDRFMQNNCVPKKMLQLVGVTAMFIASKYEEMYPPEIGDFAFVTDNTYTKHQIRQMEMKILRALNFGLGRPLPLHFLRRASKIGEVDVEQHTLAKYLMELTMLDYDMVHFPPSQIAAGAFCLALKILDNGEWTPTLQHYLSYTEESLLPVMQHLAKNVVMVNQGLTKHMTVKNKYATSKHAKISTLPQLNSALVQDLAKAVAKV
Sequence of JNK1α1(h) (P45983 1-384 isoform P45983-2): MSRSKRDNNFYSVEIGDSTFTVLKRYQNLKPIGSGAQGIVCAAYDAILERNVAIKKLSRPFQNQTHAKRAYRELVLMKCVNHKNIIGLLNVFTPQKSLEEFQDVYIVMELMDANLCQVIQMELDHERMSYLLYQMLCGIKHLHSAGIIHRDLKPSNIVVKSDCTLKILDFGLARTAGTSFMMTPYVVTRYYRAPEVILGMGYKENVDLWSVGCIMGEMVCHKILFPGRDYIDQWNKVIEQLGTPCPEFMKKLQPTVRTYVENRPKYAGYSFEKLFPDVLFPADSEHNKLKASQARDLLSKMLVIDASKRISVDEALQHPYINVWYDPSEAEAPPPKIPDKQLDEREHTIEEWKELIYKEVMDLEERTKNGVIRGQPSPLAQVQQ
Sequence of Rsk1(h) (Q15418 whole entry): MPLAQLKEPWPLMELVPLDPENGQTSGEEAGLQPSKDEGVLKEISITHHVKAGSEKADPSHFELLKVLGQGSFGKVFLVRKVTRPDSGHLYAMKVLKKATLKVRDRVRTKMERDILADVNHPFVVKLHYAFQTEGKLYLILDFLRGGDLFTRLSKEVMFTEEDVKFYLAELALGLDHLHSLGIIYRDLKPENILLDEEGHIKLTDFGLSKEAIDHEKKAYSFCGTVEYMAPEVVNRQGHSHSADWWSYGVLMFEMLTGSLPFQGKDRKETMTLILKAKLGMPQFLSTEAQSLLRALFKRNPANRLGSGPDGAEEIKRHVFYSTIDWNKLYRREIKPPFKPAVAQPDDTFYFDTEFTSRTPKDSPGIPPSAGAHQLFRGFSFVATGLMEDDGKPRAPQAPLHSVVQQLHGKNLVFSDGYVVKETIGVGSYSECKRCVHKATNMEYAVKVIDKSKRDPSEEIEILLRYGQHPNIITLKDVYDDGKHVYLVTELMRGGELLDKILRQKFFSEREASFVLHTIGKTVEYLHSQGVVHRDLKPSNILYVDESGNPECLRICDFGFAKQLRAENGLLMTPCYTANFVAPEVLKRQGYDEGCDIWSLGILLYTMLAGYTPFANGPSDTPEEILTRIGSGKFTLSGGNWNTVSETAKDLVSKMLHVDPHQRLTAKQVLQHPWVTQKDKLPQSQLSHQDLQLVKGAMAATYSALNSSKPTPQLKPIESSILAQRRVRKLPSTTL
Sequence of PKBγ(h) (Q9Y243 whole entry): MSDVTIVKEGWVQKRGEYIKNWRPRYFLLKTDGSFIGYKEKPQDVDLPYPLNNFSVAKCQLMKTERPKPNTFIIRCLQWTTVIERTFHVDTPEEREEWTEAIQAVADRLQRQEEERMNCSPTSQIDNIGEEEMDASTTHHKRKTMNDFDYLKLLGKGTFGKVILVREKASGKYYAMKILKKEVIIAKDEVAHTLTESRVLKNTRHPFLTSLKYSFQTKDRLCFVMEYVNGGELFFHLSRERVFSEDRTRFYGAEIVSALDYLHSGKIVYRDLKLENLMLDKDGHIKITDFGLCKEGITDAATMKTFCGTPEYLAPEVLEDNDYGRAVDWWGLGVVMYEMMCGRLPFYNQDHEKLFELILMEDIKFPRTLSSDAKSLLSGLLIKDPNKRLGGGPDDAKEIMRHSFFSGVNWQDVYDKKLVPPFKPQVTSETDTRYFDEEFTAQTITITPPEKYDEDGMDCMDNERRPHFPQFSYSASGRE
Sequence of GSK3β(h) (P49841 whole entry): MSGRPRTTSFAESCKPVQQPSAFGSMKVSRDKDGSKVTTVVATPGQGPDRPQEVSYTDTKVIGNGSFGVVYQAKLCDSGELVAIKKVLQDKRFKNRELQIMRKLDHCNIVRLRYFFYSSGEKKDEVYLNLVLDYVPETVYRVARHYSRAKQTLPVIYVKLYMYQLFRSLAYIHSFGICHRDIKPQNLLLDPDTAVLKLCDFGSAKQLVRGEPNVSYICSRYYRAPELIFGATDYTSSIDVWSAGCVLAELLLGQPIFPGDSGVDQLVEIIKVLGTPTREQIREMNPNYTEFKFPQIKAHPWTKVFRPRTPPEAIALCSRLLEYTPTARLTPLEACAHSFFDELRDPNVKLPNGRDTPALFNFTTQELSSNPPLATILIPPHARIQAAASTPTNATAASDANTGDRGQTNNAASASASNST

| SMILES | Activity at Protein Kinase Assays (% of control), Abl(T315l)(h) (Abl(T315l)(h)) | Activity at Protein Kinase Assays (% of control), PKCθ(h) (PKCθ(h)) | Activity at Protein Kinase Assays (% of control), PKCα(h) (PKCα(h)) | Activity at Protein Kinase Assays (% of control), IGF-1R(h) (IGF-1R(h)) | Activity at Protein Kinase Assays (% of control), GSK3β(h) (GSK3β(h)) | Activity at Protein Kinase Assays (% of control), PKBγ(h) (PKBγ(h)) | Activity at Protein Kinase Assays (% of control), MKK4(m) (MKK4(m)) | Activity at Protein Kinase Assays (% of control), PDGFRβ(h) (PDGFRβ(h)) | Activity at Protein Kinase Assays (% of control), CDK1/cyclinB(h) (CDK1/cyclinB(h)) | Activity at Protein Kinase Assays (% of control), MST2(h) (MST2(h)) | Activity at Protein Kinase Assays (% of control), Rsk1(h) (Rsk1(h)) | Activity at Protein Kinase Assays (% of control), PKCγ(h) (PKCγ(h)) | Activity at Protein Kinase Assays (% of control), JNK1α1(h) (JNK1α1(h)) | Activity at Protein Kinase Assays (% of control), SAPK3(h) (SAPK3(h)) | Activity at Protein Kinase Assays (% of control), ROCK-II(h) (ROCK-II(h)) | Activity at Protein Kinase Assays (% of control), Fes(h) (Fes(h)) | Activity at Protein Kinase Assays (% of control), CK1(y) (CK1(y)) | Activity at Protein Kinase Assays (% of control), AMPK(r) (AMPK(r)) | Activity at Protein Kinase Assays (% of control), CaMKII(r) (CaMKII(r)) | Activity at Protein Kinase Assays (% of control), p70S6K(h) (p70S6K(h)) |
| --- | --- | --- | --- | --- | --- | --- | --- | --- | --- | --- | --- | --- | --- | --- | --- | --- | --- | --- | --- | --- |
| O=C1NC(=O)C2=C1c1cn(c3ccccc13)CCCc1ccc(c(N3CCCC3)n1)CCCn1cc2c2ccccc21 [Cpd 7, 31-pyrrolidin-1-yl-5,15,25,30-tetraazaheptacyclo[27.2.2.1^5,12.1^18,25.0^6,11.0^13,17.0^19,24]pentatriaconta-1(31),6,8,10,12(35),13(17),18(34),19,21,23,29,32-dodecaene-14,16-dione] | 103 % of control | 33 % of control | 83 % of control | 106 % of control | 7 % of control | 105 % of control | 113 % of control | 105 % of control | 98 % of control | 86 % of control | 85 % of control | 102 % of control | 104 % of control | 114 % of control | 104 % of control | 130 % of control | 98 % of control | 99 % of control | 98 % of control | 84 % of control |
| O=C1NC(=O)C2=C1c1cn(c3ccccc13)CCCc1cc(nc(N3CCCC3)c1)CCCn1cc2c2ccccc21 [Cpd 6, 20-pyrrolidin-1-yl-4,14,19,26-tetraazaheptacyclo[24.6.1.1^7,14.1^18,22.0^2,6.0^8,13.0^27,32]pentatriaconta-1(33),2(6),7(35),8,10,12,18(34),19,21,27,29,31-dodecaene-3,5-dione] | 77 % of control | 29 % of control | 82 % of control | 42 % of control | 3 % of control | 103 % of control | 119 % of control | 103 % of control | 80 % of control | 100 % of control | 15 % of control | 99 % of control | 108 % of control | 103 % of control | 107 % of control | 139 % of control | 99 % of control | 105 % of control | 109 % of control | 95 % of control |
